# Key:
# Assay type in all cases: functional
# Staphylococcus capitis [1] = experiment: Antibacterial activity against Staphylococcus capitis ATCC 2784 assessed as decrease in survival at 1.3 M by turbidimetric method
# Staphylococcus capitis [2] = experiment: Antibacterial activity against Staphylococcus capitis ATCC 2784 assessed as decrease in survival at 0.5 M by turbidimetric method
# Staphylococcus capitis [3] = experiment: Antibacterial activity against Staphylococcus capitis ATCC 2784 assessed as decrease in survival at 50 x 10^-6 M by turbidimetric method
# Escherichia coli = experiment: Antibacterial activity against Escherichia coli XL-1 blue assessed as decrease in survival at 50 x 10^-6 M by turbidimetric method
SMILES,Activity (Staphylococcus capitis [1]) [%],Activity (Staphylococcus capitis [2]) [%],Activity (Staphylococcus capitis [3]) [%],Activity (Escherichia coli) [%]
CN(C)C=O [DIMETHYLFORMAMIDE],80,10,–,–
Cc1cc(=O)c2c(O)c(/C=N/CC/N=C/c3c(O)cc4oc(C)cc(=O)c4c3O)c(O)cc2o1,–,–,50,60
COc1c(/C=N/CCC/N=C/c2c(O)cc3oc(C)cc(=O)c3c2OC)c(O)cc2oc(C)cc(=O)c12,–,–,55,30
COc1c(/C=N/CC/N=C/c2c(O)cc3oc(C)cc(=O)c3c2OC)c(O)cc2oc(C)cc(=O)c12,–,–,40,54
Cc1cc(=O)c2c(O)c(/C=N/CCC/N=C/c3c(O)cc4oc(C)cc(=O)c4c3O)c(O)cc2o1,–,–,70,35

# Reference: ChEMBL document CHEMBL1156257, “Antibacterial effect of some benzopyrone derivatives” (2010)
